# In patent publication EP4660190A1, “PHARMACEUTICALLY ACCEPTABLE SALT OF COMPOUND AND PREPARATION METHOD THEREFOR” (Jiangsu Chia Tai Fenghai Pharmaceutical Co., Ltd., priority 2023, dated 2024):
# Where two headings read alike, the source gives them in different places.
# Tests used:
# [1] = rat, value in literature, cited from earlier work
# [2] = system: Middle cerebral artery occlusion (MCAO) models of SD rats; experiment: Rat MCAO model, single-dose administration, TTC staining infarct size; assay type: in vivo; conditions: 24 h; for Infarct Size (%): Mean±SD
# Procedure: 3: Pharmacodynamic study in Rat Middle Cerebral Artery Occlusion (MCAO) Model (Single-Dose Administration) Middle cerebral artery occlusion (MCAO) models of SD rats were constructed using the suture occlusion method to evaluate the protection effect of the compound on neurons of rats after cerebral ischemia-reperfusion. After anaesthesia induction with 3.0% isoflurane in SD rats (240-270g), the operation was performed, and the right-side neck area was dissected to reveal the right common carotid artery (CCA), external carotid artery (ECA) and internal carotid artery (ICA). The ECA was ligated. The ICA was temporarily occluded. Sutures were threaded at both the proximal end and the distal end of CCA. The distal end was securely ligated, and a loosely tied knot was placed at the proximal end. A small incision was made between the two ligatures on the CCA. A No. 4-0 suture was inserted through the incision of CCA and slowly and gently pushed into the ICA. The threading was halted temporarily when reaching the artery clamp of ICA. The pre-ligation suture was further tightened. The artery clamp blocking the blood flow in the ICA was removed, allowing the suture occlusion to be advanced into the ICA until it entered the intracranial region. […] The insertion was stopped at the moment, and the time was recorded. The artery clamp on the CCA was removed and the incision was closed after no active bleeding was observed. The ischemic rats were placed at room temperature to keep their body temperature at 37°C, and anesthesia induction could be carried out 120min later. The suture was slowly and gradually withdrawn when the rats were maintained under anesthesia, so that the proximal end of the suture returned to the ECA, thereby initiating reperfusion of the middle cerebral artery. Animals were administered for a single dose immediately after reperfusion (within 10min). 3 groups were established, namely a model control group, a Compound (I) i.v. group (30mg/kg), and a Compound (I) p.o. group (60mg/kg). Animals were euthanized 24 h after ischemia reperfusion, and the brains were rapidly taken, frozen, and dissected for TTC staining. The normal tissues were rose-red after staining, and the infarcted tissues were white. The infarct size (%) percentage, calculated as the weight of infarcted tissues to the weight of the whole brain, is used to evaluate the degree of cerebral ischemic injury in rats.
# [3] = system: MPTP-induced Parkinson's disease model mice; experiment: MPTP-induced mouse Parkinson's disease model, TH-positive cell counts in the substantia nigra pars compacta; assay type: in vivo, C57 mice; conditions: four weeks, mean ± SD
# [4] = Hygroscopicity test (Chinese Pharmacopoeia Section 9103); assay type: physicochemical; conditions: 25°C, 80% relative humidity, 24 hours
# [5] = system: TDP-43-A315T transgenic mice of ALS model; experiment: TDP-43-A315T ALS mice, rotarod test; assay type: in vivo; conditions: Mean±SEM
# [6] = system: rat spinal cord injury model; experiment: Rat spinal cord injury model, pathological changes
# [7] = system: TDP-43-A315T transgenic mice of ALS model; experiment: TDP-43-A315T ALS mice, muscle tone test; assay type: in vivo; conditions: Mean±SEM
# [8] = system: MPTP-induced Parkinson's disease model mice; experiment: MPTP-induced mouse Parkinson's disease model, grip strength test; conditions: Before Modeling, mean ± SD
# [9] = system: MPTP-induced Parkinson's disease model mice; experiment: MPTP-induced mouse Parkinson's disease model, pole test; assay type: in vivo, C57 mice; conditions: mean ± SD
# [10] = for Total impurities: Table 4
compound,measurement,setting,value
"CCCCC1OC(=O)c2ccccc21 (stereo not drawn) [Butylphthalide, butylphthalide, reference compound]",AUC0-inf,[1]; i.v. 10 mg/kg,8620.0 ng·h/mL
same,AUC0-t,[1]; i.v. 10 mg/kg,7230.0 ng·h/mL
same,MRTinf,[1]; i.v. 10 mg/kg,2.4 h
same,T1/2,[1]; i.v. 10 mg/kg,2.2 h
same,AUC0-inf,[1]; p.o. 60 mg/kg,8560.0 ng·h/mL
same,AUC0-t,[1]; p.o. 60 mg/kg,7110.0 ng·h/mL
same,Cmax,[1]; p.o. 60 mg/kg,2900.0 ng/mL
same,MRTinf,[1]; p.o. 60 mg/kg,3.8 h
same,T1/2,[1]; p.o. 60 mg/kg,2.83 h
same,Tmax,[1]; p.o. 60 mg/kg,0.7 h
CCC/C(O)=C1/C(=O)Oc2ccccc21 [Compound (I)],Cerebral infarction inhibition rate (%),[2]; i.v. 30mg/kg single dose after reperfusion,37.1%
same,Infarct Size (%),"[2]; i.v. 30mg/kg single dose after reperfusion, 30 mg/kg",13.61±3.66 %
same,Infarct Size (%),"[2]; i.v. 30mg/kg single dose after reperfusion, listed as compound (I), 30 mg/kg",13.61±3.66%
same,Cerebral infarction inhibition rate (%),[2]; p.o. 60mg/kg single dose after reperfusion,31.2%
same,Infarct Size (%),"[2]; p.o. 60mg/kg single dose after reperfusion, 60 mg/kg",14.88±5.11 %
same,Infarct Size (%),"[2]; p.o. 60mg/kg single dose after reperfusion, listed as compound (I), 60 mg/kg",14.88±5.11%
(Z)-3-(1-hydroxybutenyl)benzofuran-2-one tromethamine salt [Example 10],TH-Positive Cell counts,"[3]; high dose 20 mg/kg daily, listed as Tromethamine salt from Example 10, 20 mg/kg",42.42±4.36^&#
same,TH-Positive Cell counts,"[3]; high dose 20 mg/kg daily, listed as tromethamine salt from Example 10, 20 mg/kg",42.42±4.36
same,TH-Positive Cell counts,"[3]; low dose 5 mg/kg daily, listed as Tromethamine salt from Example 10, 5 mg/kg",31.22±5.97^&
same,TH-Positive Cell counts,"[3]; low dose 5 mg/kg daily, listed as tromethamine salt from Example 10, 5 mg/kg",31.22±5.97
same,hygroscopicity,[4],non-hygroscopic
same,weight gain percentage,[4],0.0%
same,Rotarod performance,"[5]; female mice, 20mg/kg, Dosing Schedule (weeks) 2",287.0 ± 8.449 s
same,Rotarod performance,"[5]; female mice, 20mg/kg, Dosing Schedule (weeks) 4",288.6 ± 7.796 s
same,Rotarod performance,"[5]; female mice, 20mg/kg, Dosing Schedule (weeks) 6",285.4 ± 6.626 s
same,Rotarod performance,"[5]; female mice, 20mg/kg, Dosing Schedule (weeks) 8",266.3 ± 14.55 s
same,Rotarod performance,"[5]; female mice, 20mg/kg, Dosing Schedule (weeks) 10",254.2 ± 12.62 s
same,Rotarod performance,"[5]; female mice, 20mg/kg, Dosing Schedule (weeks) 12",266.2 ± 14.94 s
same,Rotarod performance,"[5]; female mice, 20mg/kg, Dosing Schedule (weeks) 14",272.3 ± 10.62 s
same,Rotarod performance,"[5]; female mice, 20mg/kg, Dosing Schedule (weeks) 16",267.8 ± 16.51 s
same,Rotarod performance,"[5]; female mice, 40mg/kg p.o., Dosing Schedule (weeks) 2",273.6 ± 12.14 s
same,Rotarod performance,"[5]; female mice, 40mg/kg p.o., Dosing Schedule (weeks) 4",271.4 ± 10.22 s
same,Rotarod performance,"[5]; female mice, 40mg/kg p.o., Dosing Schedule (weeks) 6",269.5 ± 8.270 s
same,Rotarod performance,"[5]; female mice, 40mg/kg p.o., Dosing Schedule (weeks) 8",275.6 ± 9.651 s
same,Rotarod performance,"[5]; female mice, 40mg/kg p.o., Dosing Schedule (weeks) 10",260.6 ± 12.34 s
same,Rotarod performance,"[5]; female mice, 40mg/kg p.o., Dosing Schedule (weeks) 12",270.6 ± 9.446 s
same,Rotarod performance,"[5]; female mice, 40mg/kg p.o., Dosing Schedule (weeks) 14",256.3 ± 10.00 s
same,Rotarod performance,"[5]; female mice, 40mg/kg p.o., Dosing Schedule (weeks) 16",236.5 ± 15.50 s
same,Rotarod performance,"[5]; male mice, 40mg/kg p.o., Dosing Schedule (weeks) 6",272.9 ± 7.148 s
same,Rotarod performance,"[5]; male mice, 40mg/kg p.o., Dosing Schedule (weeks) 8",267.5 ± 9.357 s
same,Rotarod performance,"[5]; male mice, 40mg/kg p.o., Dosing Schedule (weeks) 10",275.8 ± 10.38 s
same,Rotarod performance,"[5]; male mice, 40mg/kg p.o., Dosing Schedule (weeks) 11",224.3 ± 26.08 s
same,Rotarod performance,"[5]; male mice, 40mg/kg p.o., Dosing Schedule (weeks) 12",182.1 ± 40.34 s
same,Rotarod performance,"[5]; male mice, 40mg/kg p.o., Dosing Schedule (weeks) 13",154.2 ± 30.27 s
same,Rotarod performance,"[5]; male mice, 60mg/kg p.o., Dosing Schedule (weeks) 6",295.6 ± 3.322 s
same,Rotarod performance,"[5]; male mice, 60mg/kg p.o., Dosing Schedule (weeks) 8",275.1 ± 11.91 s
same,Rotarod performance,"[5]; male mice, 60mg/kg p.o., Dosing Schedule (weeks) 10",267.3 ± 10.94 s
same,Rotarod performance,"[5]; male mice, 60mg/kg p.o., Dosing Schedule (weeks) 11",263.0 ± 12.54 s
same,Rotarod performance,"[5]; male mice, 60mg/kg p.o., Dosing Schedule (weeks) 12",266.3 ± 17.99 s
same,Rotarod performance,"[5]; male mice, 60mg/kg p.o., Dosing Schedule (weeks) 13",209.0 ± 31.68 s
same,cases showing a reduction in lesions,"[6]; 20 mg/kg dose group, spinal cord histopathology",4 out of 6
same,pathological changes versus the model control group,[6]; low-dose group (5 mg/kg),No significant differences
same,Muscle Tone,"[7]; female mice, 20mg/kg, animal age 6 weeks",165.4 ± 7.815 g
same,Muscle Tone,"[7]; female mice, 20mg/kg, animal age 8 weeks",190.2 ± 14.13 g
same,Muscle Tone,"[7]; female mice, 20mg/kg, animal age 10 weeks",153.7 ± 8.355 g
same,Muscle Tone,"[7]; female mice, 20mg/kg, animal age 12 weeks",159.4 ± 13.21 g
same,Muscle Tone,"[7]; female mice, 20mg/kg, animal age 13 weeks",149.8 ± 4.815 g
same,Muscle Tone,"[7]; female mice, 20mg/kg, animal age 14 weeks",150.9 ± 6.940 g
same,Muscle Tone,"[7]; female mice, 20mg/kg, animal age 16 weeks",159.5 ± 7.125 g
same,Muscle Tone,"[7]; female mice, 40mg/kg p.o., animal age 6 weeks",155.8 ± 3.677 g
same,Muscle Tone,"[7]; female mice, 40mg/kg p.o., animal age 8 weeks",190.6 ± 10.24 g
same,Muscle Tone,"[7]; female mice, 40mg/kg p.o., animal age 10 weeks",147.8 ± 7.822 g
same,Muscle Tone,"[7]; female mice, 40mg/kg p.o., animal age 12 weeks",154.3 ± 6.584 g
same,Muscle Tone,"[7]; female mice, 40mg/kg p.o., animal age 13 weeks",148.1 ± 4.851 g
same,Muscle Tone,"[7]; female mice, 40mg/kg p.o., animal age 14 weeks",161.6 ± 2.816 g
same,Muscle Tone,"[7]; female mice, 40mg/kg p.o., animal age 16 weeks",155.2 ± 3.339 g
same,Muscle Tone,"[7]; male mice, 40mg/kg p.o., animal age 6 weeks",155.4 ± 6.495 g
same,Muscle Tone,"[7]; male mice, 40mg/kg p.o., animal age 8 weeks",170.9 ± 6.777 g
same,Muscle Tone,"[7]; male mice, 40mg/kg p.o., animal age 10 weeks",155.6 ± 8.359 g
same,Muscle Tone,"[7]; male mice, 40mg/kg p.o., animal age 12 weeks",123.1 ± 18.21 g
same,Muscle Tone,"[7]; male mice, 40mg/kg p.o., animal age 13 weeks",120.8 ± 12.91 g
same,Muscle Tone,"[7]; male mice, 40mg/kg p.o., animal age 14 weeks",89.72 ± 19.04 g
same,Muscle Tone,"[7]; male mice, 60mg/kg p.o., animal age 6 weeks",175.7 ± 7.244 g
same,Muscle Tone,"[7]; male mice, 60mg/kg p.o., animal age 8 weeks",177.0 ± 5.555 g
same,Muscle Tone,"[7]; male mice, 60mg/kg p.o., animal age 10 weeks",155.93 ± 4.345 g
same,Muscle Tone,"[7]; male mice, 60mg/kg p.o., animal age 12 weeks",136.8 ± 16.00 g
same,Muscle Tone,"[7]; male mice, 60mg/kg p.o., animal age 13 weeks",149.8 ± 3.710 g
same,Muscle Tone,"[7]; male mice, 60mg/kg p.o., animal age 14 weeks",149.8 ± 2.045 g
same,Grip Strength Test,[8]; high dose 20 mg/kg group,278.44 ± 8.96 g
same,Grip Strength Test,[8]; low dose 5 mg/kg group,276.97 ± 6.40 g
same,Pole test results,"[9]; high dose 20 mg/kg daily, four weeks, Study Endpoint, listed as Tromethamine salt from Example 10, 20 mg/kg",8.83 ± 1.77 s
same,Pole test results,"[9]; high dose 20 mg/kg daily, four weeks, Study Endpoint, listed as tromethamine salt from Example 10, 20 mg/kg",8.83 ± 1.77 s
same,Pole test results,"[9]; high dose 20 mg/kg group, Before Modeling",9.51 ± 1.66 s
same,Pole test results,"[9]; low dose 5 mg/kg daily, four weeks, Study Endpoint, listed as Tromethamine salt from Example 10, 5 mg/kg",9.67 ± 1.48 s
same,Pole test results,"[9]; low dose 5 mg/kg daily, four weeks, Study Endpoint, listed as tromethamine salt from Example 10, 5 mg/kg",9.67 ± 1.48 s
same,Pole test results,"[9]; low dose 5 mg/kg group, Before Modeling",9.40 ± 1.51 s
same,Total impurities,[10]; 0 h,0.08
same,Total impurities,"[10]; High Humidity 75%, 10 d",0.04
same,Total impurities,"[10]; High Humidity 92.5%, 10 d",0.04
same,Total impurities,"[10]; High temperature 60°C, 10 d",0.03
same,Total impurities,"[10]; Light (packaged), 10 d",0.04
same,Total impurities,"[10]; Light (unwrapped), 10 d",0.03
same,chemical stability,"[10]; high temperature (60°C), light (unwrapped, packaged), high humidity (92.5%, 75%)",good chemical stability
